Our source for the activity and Percent fungal survival values is PMC8815882, “Screening the pandemic response box identified benzimidazole carbamates, Olorofim and ravuconazole as promising drug candidates for the treatment of eumycetoma” (PLoS Neglected Tropical Diseases, 2022).

This assay concerns M. mycetomatis genome strain MM55. Put plainly: CLSI M38-A2 based in vitro susceptibility screening (XTT or resazurin), growth at fixed concentration. It counts as cell-based, Madurella mycetomatis. The settings on record: Madurella mycetomatis; for Percent fungal survival at 100 µM: read-out: Percentage survival at 100um, 100 uM A (second replicate column). (In general: Tetrazolium assays rely on reduction of a dye to a coloured formazan, in cell work by metabolically active cells.)

Where [1] appears, read: mean, read-out: Percentage survival at 25um, 25 uM mean.
The mark [2] stands for this setting: replicate A, read-out: Percentage survival at 25um, 25 um A.
Where [3] appears, read: replicate B, read-out: Percentage survival at 25um, 25 uM B.
Where [4] appears, read: replicate C, read-out: Percentage survival at 25um, 25 uM C.
Where [5] appears, read: mean, read-out: Percentage survival at 100um, 100 uM mean.
Where [6] appears, read: replicate (first column), read-out: Percentage survival at 100um, 100 uM A.
The mark [7] stands for this setting: replicate (second column), read-out: Percentage survival at 100um, 100 uM A.
[8] abbreviates: replicate (third column), read-out: Percentage survival at 100um, 100 uM A.
Where [9] appears, read: mean of three, M. mycetomatis MM55, read-out: Percentage survival at 25um, 25 uM mean.
The mark [10] stands for this setting: replicate A, M. mycetomatis MM55, read-out: Percentage survival at 25um, 25 um A.
[11] abbreviates: replicate B, M. mycetomatis MM55, read-out: Percentage survival at 25um, 25 uM B.
Setting [12] is: replicate C, M. mycetomatis MM55, read-out: Percentage survival at 25um, 25 uM C.
[13] abbreviates: mean of three, M. mycetomatis MM55, read-out: Percentage survival at 100um, 100 uM mean.
[14] abbreviates: replicate 1, M. mycetomatis MM55, read-out: Percentage survival at 100um, 100 uM A (first replicate column).
Setting [15] is: replicate 2, M. mycetomatis MM55.
Setting [16] is: replicate 3, M. mycetomatis MM55, read-out: Percentage survival at 100um, 100 uM A (third replicate column).
Setting [17] is: mean of three replicates, read-out: Percentage survival at 25um, 25 uM mean.
Where [18] appears, read: first replicate column, read-out: Percentage survival at 100um, 100 uM A.
[19] abbreviates: mean of three replicates, read-out: Percentage survival at 100um, 100 uM mean.
[20] abbreviates: second replicate column, read-out: Percentage survival at 100um, 100 uM A.
The mark [21] stands for this setting: third replicate column, read-out: Percentage survival at 100um, 100 uM A.
[22] abbreviates: mean of replicates, read-out: Percentage survival at 25um, 25 uM mean.
[23] abbreviates: mean of replicates, read-out: Percentage survival at 100um, 100 uM mean.
The mark [24] stands for this setting: replicate 1, read-out: Percentage survival at 100um, 100 uM A.
The mark [25] stands for this setting: replicate 2, read-out: Percentage survival at 100um, 100 uM A.
Setting [26] is: replicate 3, read-out: Percentage survival at 100um, 100 uM A.
[27] abbreviates: mean of replicates, MM55, read-out: Percentage survival at 25um, 25 uM mean.
Setting [28] is: replicate A, MM55, read-out: Percentage survival at 25um, 25 um A.
Setting [29] is: replicate B, MM55, read-out: Percentage survival at 25um, 25 uM B.
[30] abbreviates: replicate C, MM55, read-out: Percentage survival at 25um, 25 uM C.
The mark [31] stands for this setting: mean of replicates, MM55, read-out: Percentage survival at 100um, 100 uM mean.
[32] abbreviates: replicate 1, MM55, read-out: Percentage survival at 100um, 100 uM A.
[33] abbreviates: replicate 2, MM55, read-out: Percentage survival at 100um, 100 uM A.
The mark [34] stands for this setting: replicate 3, MM55, read-out: Percentage survival at 100um, 100 uM A.
[35] abbreviates: replicate 1, read-out: Percentage survival at 100um, 100 uM A (first replicate column).
The mark [36] stands for this setting: replicate 3, read-out: Percentage survival at 100um, 100 uM A (third replicate column).

Like-named read-outs stand apart in the source and are kept apart here.

As for `O=C(NCc1cccc2ccccc12)c1cccs1` [MMV1579845], the activity at 25 µM runs as follows: under setting [1], 55.9%; under setting [2], 59.6%; under setting [3], 48.9%; under setting [4], 59.3%. For the same compound, the activity at 100 µM is 35% under setting [5], 90% under setting [6], 6.29% under setting [7] and 8.86% under setting [8].
`C[C@H](c1cccc2ccccc12)N(C)Cc1ccccc1` [MMV1782221]: the activity at 25 µM was 60.5% under setting [9], 78.4% under setting [10], 99.2% under setting [11] and 3.87% under setting [12]. Further, the activity at 100 µM was determined as 78.8% under setting [13], 56% under setting [14] and 117% under setting [16]. Under setting [15], the Percent fungal survival at 100 µM is 63.1%.
`C[C@H](Cn1cnc2c(N)ncnc21)OCP(=O)(O)O` [MMV1580478]: the activity at 25 µM under setting [17] amounted to 99.2%, the activity at 25 µM under setting [2] came to 98.1%, the activity at 25 µM under setting [3] turned out to be 110% and the activity at 25 µM under setting [4] came to 89.5%. Besides, the activity at 100 µM was determined as 94.5% under setting [18], 89% under setting [19], 87.6% under setting [20] and 84.8% under setting [21].
`Nc1nc(NC2Cc3ccc(F)cc3C2)nc(N2CCCCC2)n1` (centres unmarked) [MMV1580839]: the activity at 25 µM under setting [22] turned out to be 40.6%, the activity at 25 µM under setting [2] is 58.8%, the activity at 25 µM under setting [3] was 53.9% and the activity at 25 µM under setting [4] was determined as 9.06%. Besides, the activity at 100 µM under setting [23] was found to be 1.55%, the activity at 100 µM under setting [24] is -0.246%, the activity at 100 µM under setting [25] came to 0.453% and the activity at 100 µM under setting [26] stood at 4.45%.
`C=C(C)[C@@H]1CC[C@]2(C(=O)O)CC[C@]3(C)[C@H](CC[C@@H]4[C@@]5(C)CC[C@H](O)C(C)(C)[C@@H]5CC[C@]43C)[C@@H]12` [MMV638198]: the activity at 25 µM reads like this: under setting [27], 78.4%; under setting [28], 65.7%; under setting [29], 92.3%; under setting [30], 77.1%. The activity at 100 µM runs as follows: under setting [31], 79.4%; under setting [32], 83.2%; under setting [33], 80.2%; under setting [34], 74.7%.
Consider `CC(C)(C)c1cccc(-c2nc3cc(C(=N)N)ccc3[nH]2)c1O` [MMV1581548], for which the activity at 25 µM by setting is: under setting [1], 20.7%; under setting [2], 56.8%; under setting [3], 2.31%; under setting [4], 2.96%. Further, the activity at 100 µM by setting is: under setting [5], 3.06%; under setting [6], -0.0188%; under setting [7], 5.51%; under setting [8], 3.71%.
For `Fc1ccc(-n2cc(Cn3c(-c4cccc(F)c4)nc4ccccc43)nn2)cc1` [MMV1580850], the activity at 25 µM is, setting by setting: under setting [9], 60.8%; under setting [10], 55.7%; under setting [11], 55.1%; under setting [12], 71.7%. In addition, the activity at 100 µM is, setting by setting: under setting [13], 85.9%; under setting [14], 71.4%; under setting [16], 126%. The Percent fungal survival at 100 µM under setting [15] was 60.3%.
`Nc1ccc2oc(=O)ccc2c1I` [MMV1581378]: the activity at 25 µM is, setting by setting: under setting [17], 80.5%; under setting [2], 75.8%; under setting [3], 85.5%; under setting [4], 80.1%. Further, the activity at 100 µM is, setting by setting: under setting [18], 75.4%; under setting [19], 64.9%; under setting [20], 66.2%; under setting [21], 53.2%.
As to `N#CCN1C(=O)COc2cc(F)c(N3C(=O)c4ccccc4C3=O)cc21` [MMV1579785], the activity at 25 µM reads like this: under setting [22], 81.2%; under setting [2], 78.3%; under setting [3], 91.5%; under setting [4], 73.8%. Further, the activity at 100 µM stood at 88.3% under setting [23], 83.8% under setting [24], 94.2% under setting [25] and 87% under setting [26].
`CC[C@@H]1C(=O)OC[C@@H]1Cc1cncn1C` [MMV002516]: the activity at 25 µM under setting [22] turned out to be 82.7%, the activity at 25 µM under setting [2] came out at 90.3%, the activity at 25 µM under setting [3] is 90.6% and the activity at 25 µM under setting [4] amounted to 67.2%. In addition, the activity at 100 µM is, setting by setting: under setting [23], 73.8%; under setting [24], 82.4%; under setting [25], 85%; under setting [26], 53.9%.
Consider `C[C@@H](O)[C@H](N)C(=O)NS(=O)(=O)c1cccc(-c2ccc3[nH]ncc3c2)c1` [MMV1582494], for which the activity at 25 µM by setting is: under setting [1], 82.4%; under setting [2], 91.3%; under setting [3], 83.3%; under setting [4], 72.6%. Moreover, the activity at 100 µM reads like this: under setting [5], 79.4%; under setting [6], 99.3%; under setting [7], 66.8%; under setting [8], 72.1%.
As for `Cc1cc(C)n2nc(C(=O)NS(=O)(=O)c3c(C)cccc3OC(F)(F)F)nc2n1` [MMV1782402], the activity at 25 µM is 96.1% under setting [17], 98.2% under setting [2], 98.8% under setting [3] and 91.3% under setting [4]. The activity at 100 µM by setting is: under setting [19], 91.2%; under setting [35], 99%; under setting [36], 82%. The Percent fungal survival at 100 µM (replicate 2) worked out at 92.6%.
Consider `Cc1cc(CCOc2c(C)cc(-c3nnn(C)n3)cc2C)on1` [MMV1782349], for which the activity at 25 µM by setting is: under setting [27], 75.6%; under setting [28], 84.4%; under setting [29], 90%; under setting [30], 52.4%. Further, the activity at 100 µM by setting is: under setting [31], 52.1%; under setting [32], 44.9%; under setting [33], 65%; under setting [34], 46.2%.
In the case of `Nc1nc(C(F)(F)F)cc2c1[nH]c(=O)n2Cc1ccccc1` [MMV1634389], the activity at 25 µM was found to be 83.5% under setting [22], 74.5% under setting [2], 96.8% under setting [3] and 79.4% under setting [4]. The activity at 100 µM runs as follows: under setting [23], 61.6%; under setting [35], 36.1%; under setting [36], 81.6%. Moreover, the Percent fungal survival at 100 µM (replicate 2) came out at 67.1%.
Regarding `CO/N=C(\C(=O)N[C@@H]1C(=O)N2C(C(=O)OCOC(=O)C(C)(C)C)=C(/C=C\c3scnc3C)CS[C@H]12)c1csc(N)n1` [MMV002560], the activity at 25 µM runs as follows: under setting [22], 117%; under setting [2], 84.9%; under setting [3], 78.8%; under setting [4], 186%. Also, the activity at 100 µM by setting is: under setting [23], 77.5%; under setting [24], 72.7%; under setting [25], 83.7%; under setting [26], 76%.
For the compound `O=C(Nc1cccc(C2=NCCN2)c1)c1ccc(-c2ccc(C(=O)Nc3cccc(C4=NCCN4)c3)cc2)cc1` [MMV1580853], the activity at 25 µM by setting is: under setting [1], 84.5%; under setting [2], 92.1%; under setting [3], 94.2%; under setting [4], 67.1%. Further, the activity at 100 µM is, setting by setting: under setting [5], 55.8%; under setting [6], 6.17%; under setting [7], 92%; under setting [8], 69.2%.
